pKi: −log10 of the molar value.

In this experiment the target is Sigma non-opioid intracellular receptor 1 (Cavia porcellus, UniProt Q60492). Nature of the experiment: Displacement of [3H]-(+)-pentazocine from sigma-1 receptor in guinea pig brain homogenates. Format: tissue-based.
Chain of Sigma non-opioid intracellular receptor 1 (Q60492 whole entry): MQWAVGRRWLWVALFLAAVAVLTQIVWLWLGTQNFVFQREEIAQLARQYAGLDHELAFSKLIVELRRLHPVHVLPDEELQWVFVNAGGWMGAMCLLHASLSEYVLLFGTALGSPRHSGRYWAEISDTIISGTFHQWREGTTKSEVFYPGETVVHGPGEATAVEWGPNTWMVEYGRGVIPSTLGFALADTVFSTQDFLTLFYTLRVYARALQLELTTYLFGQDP
Consider `NCC[C@@H]1CCO[C@H](c2ccccc2)O1`, for which the pKi is less than 5.00.

`c1ccc(CNCC[C@@H]2CCO[C@H](c3ccccc3)O2)cc1`: the pKi was 8.22.

The compound `CC[C@@]1(c2ccccc2)OCC[C@@H](CCN)O1` had a pKi of less than 5.00.

On to `CC[C@@]1(c2ccccc2)OCC[C@@H](CCNCc2ccccc2)O1`, for which the pKi is 7.70.

In turn, `CC[C@]1(c2ccccc2)OCC[C@H](CCNCc2ccccc2)O1` gave a pKi of 7.55.

Take `CCC[C@]1(c2ccccc2)OCC[C@H](CCNCc2ccccc2)O1`: the pKi is 6.87.

As for `CCC[C@@]1(c2ccccc2)OCC[C@@H](CCNCc2ccccc2)O1`, the pKi is 7.14.

For the compound `CC(C)(C)[C@]1(c2ccccc2)OCC[C@H](CCNCc2ccccc2)O1`, the pKi is 6.60.

The compound `CC(C)(C)[C@@]1(c2ccccc2)OCC[C@@H](CCNCc2ccccc2)O1` had a pKi of 6.89.

On to `C[C@]1(c2ccccc2)OCC[C@H](CCN)O1`, for which the pKi was less than 5.00.

`C[C@@]1(c2ccccc2)OCC[C@@H](CCN)O1` gave a pKi of less than 5.00.

With `CC[C@]1(c2ccccc2)OCC[C@H](CCN)O1`, the pKi is less than 5.00.

As for `CCC[C@]1(c2ccccc2)OCC[C@H](CCN)O1`, the pKi is less than 5.00.

Compound `CCC[C@@]1(c2ccccc2)OCC[C@@H](CCN)O1` gave a pKi of less than 5.00.

On to `CC(C)(C)[C@]1(c2ccccc2)OCC[C@H](CCN)O1`, for which the pKi is less than 5.00.

Consider `CC(C)(C)[C@@]1(c2ccccc2)OCC[C@@H](CCN)O1`, for which the pKi was less than 5.00.

In turn, `c1ccc(CNCC[C@H]2CCO[C@@H](c3ccccc3)O2)cc1` showed a pKi of 7.30.

Compound `C[C@]1(c2ccccc2)OCC[C@H](CCNCc2ccccc2)O1` showed a pKi of 7.96.

Compound `C[C@@]1(c2ccccc2)OCC[C@@H](CCNCc2ccccc2)O1` gave a pKi of 7.77.

For the compound `NCC[C@H]1CCO[C@@H](c2ccccc2)O1`, the pKi is less than 5.00.

The compound `NCCC1CCOC(c2ccccc2)O1` (racemic) showed a pKi of less than 5.00.

Compound `CCC1(c2ccccc2)OCCC(CCN)O1` (racemic) showed a pKi of less than 5.00.

The values are drawn from ChEMBL document CHEMBL2169843 (J Med Chem, 2012).
